Data taken from ChEMBL document CHEMBL3585240, “Synthesis and biological evaluation of caracasine acid derivatives” (Bioorg Med Chem, 2015).
Active and inactive are the calls of the source. The rule behind the calls is not given here.

Legend:
Pseudomonas aeruginosa [1] = experiment: Antibacterial activity against Pseudomonas aeruginosa ATCC 27853 assessed as growth inhibition at 5 ug after 24 hrs by disc agar diffusion method; format: functional; conditions: ATCC 27853, 24 h, read-out: DIZ
Bacillus cereus [2] = experiment: Antibacterial activity against Bacillus cereus ATCC 14579 assessed as growth inhibition at 5 ug after 24 hrs by disc agar diffusion method; format: functional; conditions: ATCC 14579, 24 h, read-out: DIZ
Staphylococcus aureus [3] = experiment: Antibacterial activity against Staphylococcus aureus ATCC 25923 assessed as growth inhibition at 5 ug after 24 hrs by disc agar diffusion method; format: functional; conditions: ATCC 25923, 24 h, read-out: DIZ
Escherichia coli [4] = experiment: Antibacterial activity against Escherichia coli ATCC 35218 assessed as growth inhibition at 5 ug after 24 hrs by disc agar diffusion method; format: functional; conditions: ATCC 35218, 24 h, read-out: DIZ
Escherichia coli [5] = experiment: Antibacterial activity against Escherichia coli ATCC 35218 assessed as growth inhibition at 20 ug after 24 hrs by disc agar diffusion method in presence of sulbactam; format: functional, organism-based
Staphylococcus aureus [6] = experiment: Antibacterial activity against Staphylococcus aureus ATCC 25923 assessed as growth inhibition at 20 ug after 24 hrs by disc agar diffusion method in presence of sulbactam; format: functional; conditions: ATCC 25923, 24 h, read-out: DIZ
Bacillus cereus [7] = experiment: Antibacterial activity against Bacillus cereus ATCC 14579 assessed as growth inhibition at 20 ug after 24 hrs by disc agar diffusion method in presence of sulbactam; format: functional, organism-based
Pseudomonas aeruginosa [8] = experiment: Antibacterial activity against Pseudomonas aeruginosa ATCC 27853 assessed as growth inhibition at 20 ug after 24 hrs by disc agar diffusion method in presence of sulbactam; format: functional; conditions: ATCC 27853, 24 h, read-out: DIZ
Staphylococcus aureus [9] = experiment: Antibacterial activity against Staphylococcus aureus ATCC 25923 assessed as growth inhibition at 15 ug after 24 hrs by disc agar diffusion method; format: functional; conditions: ATCC 25923, 24 h, read-out: DIZ
Bacillus cereus [10] = experiment: Antibacterial activity against Bacillus cereus ATCC 14579 assessed as growth inhibition at 15 ug after 24 hrs by disc agar diffusion method; format: functional; conditions: ATCC 14579, 24 h, read-out: DIZ
Pseudomonas aeruginosa [11] = experiment: Antibacterial activity against Pseudomonas aeruginosa ATCC 27853 assessed as growth inhibition at 15 ug after 24 hrs by disc agar diffusion method; format: functional; conditions: ATCC 27853, 24 h, read-out: DIZ
Escherichia coli [12] = experiment: Antibacterial activity against Escherichia coli ATCC 35218 assessed as growth inhibition at 15 ug after 24 hrs by disc agar diffusion method; format: functional; conditions: ATCC 35218, 24 h, read-out: DIZ

For `CC1COc2c(N3CCN(C)CC3)c(F)cc3c(=O)c(C(=O)O)cn1c23` (configuration not stated) [OFLOXACIN], the zone of inhibition at 5 µg/disc (Pseudomonas aeruginosa [1]) was 15 mm, the zone of inhibition at 5 µg/disc (Bacillus cereus [2]) was 28 mm and the zone of inhibition at 5 µg/disc (Staphylococcus aureus [3]) was 25 mm. It also gave a zone of inhibition at 5 µg/disc (Escherichia coli [4]) of 24 mm.
For `CC1(C)S[C@@H]2[C@H](NC(=O)[C@H](N)c3ccccc3)C(=O)N2[C@H]1C(=O)O` [AMPICILLIN], the “growth inhibition (GI)” value (Escherichia coli [5]) was “inactive”, the zone of inhibition at 20 µg/disc (Staphylococcus aureus [6]) was 18 mm and the “growth inhibition (GI)” value (Bacillus cereus [7]) was “inactive”. It also gave a zone of inhibition at 20 µg/disc (Pseudomonas aeruginosa [8]) of 12 mm.
Compound `CC[C@H]1OC(=O)C[C@@H](O)[C@H](C)[C@@H](O[C@@H]2O[C@H](C)[C@@H](O)[C@H](N(C)C)[C@H]2O)[C@@H](CCN2C[C@H](C)C[C@H](C)C2)C[C@@H](C)C(=O)/C=C/C(C)=C/[C@@H]1CO[C@@H]1O[C@H](C)[C@@H](O)[C@@H](OC)[C@H]1OC` [TILMICOSIN] has a zone of inhibition at 15 µg/disc (Staphylococcus aureus [9]) of 23 mm, a zone of inhibition at 15 µg/disc (Bacillus cereus [10]) of 32 mm and a zone of inhibition at 15 µg/disc (Pseudomonas aeruginosa [11]) of 18 mm. It also gave a zone of inhibition at 15 µg/disc (Escherichia coli [12]) of 18 mm.
